Data published in paper PMC10620162, “Structure—yeast α-glucosidase inhibitory activity relationship of 9-O-berberrubine carboxylates” (Scientific Reports, 2023).
Read-outs that look alike come from different tables or passages of the source.

Legend:
[1] = system: HepG2 cells; design: method as in PMID 27561717; conditions: cited from earlier work; for glucose consumption (GC): HepG2 cells ref 29
[2] = design: method as in PMID 27020531; conditions: at 20 °C ref 19; cited from earlier work
[3] = design: method as in doi:10.2217/clp.09.41, PMID 16956957; conditions: cited from earlier work
[4] = biological target: T1, yeast α-glucosidase (Saccharomyces cerevisiae, UniProt P53341); experiment: biochemical; conditions: for inhibition at 50 µM: read-out: Inhibition at 50 μM (%), 50 μM
T1 construct: purchased Sigma Aldrich
Experimental: Berberrubine derivatives will be assayed for yeast α-glucosidase inhibitory activity. The protocol described by Ramadhan et al. will be used[37]. Briefly, yeast α-glucosidase (0.1 U/mL) and substrate (1 mM p-nitrophenyl-α-D-glucopyranoside) were dissolved in 0.1 M phosphate buffer (pH 6.9). A 10 μL test sample was pre-incubated with α-glucosidase (40 μL) at 37 °C for 10 min. A substrate solution (50 μL) was then added to the reaction mixture and incubated at 37 °C for an additional 20 min, and terminated by adding 1 M Na2CO3 solution (100 μL). […] The percentage inhibition of activity was calculated as follows: % Inhibition = [(A0 − A1)/A0] × 100, where: A0 is the absorbance without the sample; A1 is the absorbance with the sample. The IC50 value was deduced from the plot of % inhibition versus the concentration of the test sample.

[5] = biological target: T1, yeast α-glucosidase; experiment: kinetic study of α-glucosidase inhibition (Lineweaver–Burk plots); assay type: biochemical; conditions: for inhibition type: Lineweaver–Burk plot analysis
Experimental: To further investigate how these 9-O-berberrubine carboxylates interact with yeast α-glucosidase, the inhibition types of four potential compounds, 9, 26, 28 and 33 were studied by using Lineweaver–Burk plot analysis.
The mode of inhibition of α-glucosidase was determined from Lineweaver–Burk plots. The inhibition type was determined using various concentrations of p-NPG substrate in the absence or presence of compounds at different concentrations. The Ki value was determined from secondary plots of slope versus [I].

[6] = cytotoxicity study with HEK-293 cells (CellTiter 96 AQueous One); assay type: cell-based; conditions: human
Experimental: HEK-293 cells (ATCC® CRL-1573™) were maintained in growth medium consisting of DMEM (Gibco®, Langley, OK) supplemented with 10% fetal bovine serum (Gibco®, Langley, OK), 100 I.U./ml penicillin (Bio Basic Canada®, Ontario, CA), 100 μg/ml streptomycin (Bio Basic Canada®, Ontario, CA), and 10 mM HEPES (4-(2-hydroxyethyl)-1-piperazineethanesulfonic acid) (Sigma Aldrich®, St. Louis, MO) at 37 °C under 5% CO2.
The cytotoxicity of the active compounds (9, 26, 28 and 33) was tested with HEK-293 cells. The cells were seeded at 1 × 10^4 cells per well into 96-well plates in growth medium and incubated overnight. The compounds were prepared at the indicated concentrations in dimethylsulfoxide (DMSO) and added to the cells. Cells were incubated for 48 h before analyzing the cell viability using CellTiter 96® AQueous One Solution Cell Proliferation Assay kit (Promega, USA) according to manufacturer’s protocol. The plate was read at the A490 by VICTORTM X3 microplate reader (PerkinElmer, USA). The 1%DMSO treated cells as a positive control (100% viability). The CC50 values were calculated from nonlinear regression analysis. Results were reported as means and standard error mean (SEM) from three biological independent experiments.

[7] = biological target: yeast α-glucosidase; design: method as in PMID 26917220; conditions: cited from earlier work

T1 sequence (P53341 whole entry): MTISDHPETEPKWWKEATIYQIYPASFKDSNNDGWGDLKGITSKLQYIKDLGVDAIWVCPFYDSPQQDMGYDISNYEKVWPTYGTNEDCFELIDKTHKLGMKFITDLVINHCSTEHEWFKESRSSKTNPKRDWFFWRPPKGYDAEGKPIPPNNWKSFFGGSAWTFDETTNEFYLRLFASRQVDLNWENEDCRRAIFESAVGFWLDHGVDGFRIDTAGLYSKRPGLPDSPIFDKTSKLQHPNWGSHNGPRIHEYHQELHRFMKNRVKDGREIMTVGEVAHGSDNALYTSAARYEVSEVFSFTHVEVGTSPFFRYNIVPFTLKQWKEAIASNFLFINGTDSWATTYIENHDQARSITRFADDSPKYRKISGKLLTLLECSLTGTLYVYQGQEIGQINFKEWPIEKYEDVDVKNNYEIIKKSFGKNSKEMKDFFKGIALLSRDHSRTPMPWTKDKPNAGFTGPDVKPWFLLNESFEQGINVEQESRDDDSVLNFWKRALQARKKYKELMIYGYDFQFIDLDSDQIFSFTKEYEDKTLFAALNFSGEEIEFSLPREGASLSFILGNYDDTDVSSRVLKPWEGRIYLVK

| SMILES | inhibition at 50 µM [4] [%] | inhibition type [5] | IC50 ([4]; read-out: IC50) [µM] | CC50 at 48 h [6] [µM] | also measured |
| --- | --- | --- | --- | --- | --- |
| COc1ccc2cc3[n+](cc2c1OC)CCc1cc2c(cc1-3)OCO2 [BBR, Berberine, reference compound] | < 0 |  |  |  | glucose consumption (GC) [1]: 5.04 mM; aqueous solubility [2]: ~ 1.8 mg/mL; bioavailability [3]: less than 5% |
| COc1ccc2cc3[n+](cc2c1OC(=O)c1ccccc1OCc1ccccc1)CCc1cc2c(cc1-3)OCO2.[Cl-] [Compound 9, 9-((2-(benzyloxy)benzoyl)oxy)-10-methoxy-5,6-dihydro-[1,3]dioxolo[4,5-g]isoquinolino[3,2-a]isoquinolin-7-ium chloride] | 100 | competitive | 2.29 ± 0.08 | 30.5 |  |
| COc1ccc2cc3[n+](cc2c1OC(=O)c1cc(C(C)(C)C)cc(C(C)(C)C)c1)CCc1cc2c(cc1-3)OCO2.[Cl-] [Compound 26, 9-((3,5-di-tert-butylbenzoyl)oxy)-10-methoxy-5,6-dihydro-[1,3]dioxolo[4,5-g]isoquinolino[3,2-a]isoquinolin-7-ium chloride] | 99.8 | competitive |  | 18.2 | Ki [5]: 10.7 µM; IC50 [4]: 1.61 ± 0.08 µM |
| COc1ccc2cc3[n+](cc2c1OC(=O)c1ccc2ccccc2c1)CCc1cc2c(cc1-3)OCO2.[Cl-] [Compound 28, 9-((2-naphthoyl)oxy)-10-methoxy-5,6-dihydro-[1,3]dioxolo[4,5-g]isoquinolino[3,2-a]isoquinolin-7-ium chloride] | 95.7 | competitive | 2.63 ± 0.23 | 20.9 | Ki ([5]; secondary plots of slope versus [I], read-out: inhibition constants (Ki)): 25.3 µM |
| COc1ccc2cc3[n+](cc2c1OC(=O)C=Cc1ccccc1)CCc1cc2c(cc1-3)OCO2.[Cl-] [Compound 29, 9-(cinnamoyloxy)-10-methoxy-5,6-dihydro-[1,3]dioxolo[4,5-g]isoquinolino[3,2-a]isoquinolin-7-ium chloride] | 88.5 |  |  |  | glucose consumption (GC) [1]: 6.73 mM; cytotoxicity ([1]; compared with berberine ref 29): lower than berberine; IC50 [4]: 15.1 ± 0.6 µM |
| COc1ccc2cc3[n+](cc2c1OC(=O)/C=C/c1c(Cl)cccc1Cl)CCc1cc2c(cc1-3)OCO2 [Compound 32, (E)-9-((3-(2,6-dichlorophenyl)acryloyl)oxy)-10-methoxy-5,6-dihydro-[1,3]dioxolo[4,5-g]isoquinolino[3,2-a]isoquinolin-7-ium chloride] | 94.8 |  |  |  | IC50 [4]: 16 ± 0.67 µM |
| COc1ccc2cc3[n+](cc2c1OC(=O)/C=C/C=C/c1ccc2c(c1)OCO2)CCc1cc2c(cc1-3)OCO2.[Cl-] [Compound 33, 9-(((2E,4E)-5-(benzo[d][1,3]dioxol-5-yl)penta-2,4-dienoyl)oxy)-10-methoxy-5,6-dihydro-[1,3]dioxolo[4,5-g]isoquinolino[3,2-a]isoquinolin-7-ium chloride] | 98.7 | competitive | 1.95 ± 0.06 | 17.7 |  |
| COc1ccc2cc3[n+](cc2c1OC(=O)Cc1c(Cl)cccc1Cl)CCc1cc2c(cc1-3)OCO2 [Compound 34, 9-(2-(2,6-dichlorophenyl)acetoxy)-10-methoxy-5,6-dihydro-[1,3]dioxolo[4,5-g]isoquinolino[3,2-a]isoquinolin-7-ium chloride] | 93.9 |  | 7.3 ± 0.51 |  |  |
| COc1ccc2cc3[n+](cc2c1OC(=O)C(c1ccccc1)c1ccccc1)CCc1cc2c(cc1-3)OCO2 [Compound 35, 9-(2,2-diphenylacetoxy)-10-methoxy-5,6-dihydro-[1,3]dioxolo[4,5-g]isoquinolino[3,2-a]isoquinolin-7-ium chloride] | 95.2 |  | 6.19 ± 0.32 |  |  |
| O=c1c2ccccc2oc2cc(O)cc(O)c12 [Compound X1, 1,3-dihydroxyxanthone] |  |  |  |  | IC50 [7]: 145 µM |
| CC(C)(C)[Si](C)(C)Oc1ccc(C(=O)Oc2cc(O)c3c(=O)c4ccccc4oc3c2)cc1 [Compound X2, 3-Arylacyloxyxanthone] |  |  |  |  | IC50 [7]: 10.6 µM |
